Results on ten compounds are retold here after patent US20030130272A1, “Anthracene derivatives as anti-cancer agents” (priority 1999, published 2003).

One series relates to MAC 15A cells. The series is described as follows: In vitro activity against MAC 15A adenocarcinoma (MTT assay). Format: cell-based. Conditions: MAC15A colon adenocarcinoma, 96 hours continuous exposure. The protocol: MAC 15A cells were grown in RPMI 1640 medium supplemented with 10% foetal calf serum containing a 1% antibiotic mixture under standard tissue culture conditions and were maintained at 37° C. in a humidified atmosphere of 5% CO2 in air. Cells were harvested from a stock culture in exponential growth phase and plated in 96-well flat-bottomed plates to achieve a final density of 2×10^3 cells per well. After 2 hours incubation medium was replaced with either fresh medium containing 0.5% DMSO (control) or medium containing test compound dissolved in DMSO at a concentrations from 10 mM to 1 nM. Chemosensitivity was assessed using MTT assay by the method of Plumb et al Cancer Research 49 (1989) 4435-4440.
Following 96 hours continuous exposure to drug at 37° C. cells were incubated with fresh drug-free medium immediately prior to addition of MTT solution (5 mg/ml). Medium and MTT were removed after 4 hours and 150 μl of DMSO was added. For each plate the absorbance of the resulting solution was measured at the analytical wavelength 550 nm for formnazan product, using a Labsystem Mutiskan. IC50 values were obtained from growth curves of drug concentration against % survival and are expressed in μm.
In vitro Cytotoxicity of Spacer Limked Anthraquinone Peptide Conjugates on MAC15A Colon Adenocarcinoma

In the next series the test system is HL-60 Human Leukemia. The series can be described thus: In vitro cytotoxicity against HL-60 human leukemia. In kind it is cell-based. From the text: In vitro Cytotoxicity of Spacer-Linked Anthraquinone-Peptide Conjugates Against HL-60 Human Leukemia
Series [1] addresses T1, topo I (Homo sapiens, UniProt P11387).
T1 sequence (P11387 1-765): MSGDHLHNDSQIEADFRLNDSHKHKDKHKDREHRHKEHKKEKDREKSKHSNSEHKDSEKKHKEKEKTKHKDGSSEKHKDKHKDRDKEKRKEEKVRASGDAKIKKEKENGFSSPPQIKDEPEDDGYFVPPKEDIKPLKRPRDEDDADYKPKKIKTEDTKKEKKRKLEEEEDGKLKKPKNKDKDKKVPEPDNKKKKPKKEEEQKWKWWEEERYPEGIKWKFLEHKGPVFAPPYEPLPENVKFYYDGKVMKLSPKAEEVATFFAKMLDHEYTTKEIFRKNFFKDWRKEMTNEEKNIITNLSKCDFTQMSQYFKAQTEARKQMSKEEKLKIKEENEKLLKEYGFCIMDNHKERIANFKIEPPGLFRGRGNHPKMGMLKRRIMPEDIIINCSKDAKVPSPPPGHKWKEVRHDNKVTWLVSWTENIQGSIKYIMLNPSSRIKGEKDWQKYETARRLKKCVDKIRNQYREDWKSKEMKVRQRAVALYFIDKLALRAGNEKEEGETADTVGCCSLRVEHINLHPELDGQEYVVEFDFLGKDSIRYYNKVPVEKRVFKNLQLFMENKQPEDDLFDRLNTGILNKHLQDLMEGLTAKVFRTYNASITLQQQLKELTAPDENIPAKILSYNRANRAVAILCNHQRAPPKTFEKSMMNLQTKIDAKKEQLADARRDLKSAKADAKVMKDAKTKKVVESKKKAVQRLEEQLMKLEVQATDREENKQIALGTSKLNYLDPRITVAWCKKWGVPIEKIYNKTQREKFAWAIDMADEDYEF
The series can be described thus: Inhibition of topoisomerase I mediated relaxation of pBR322 DNA. In kind it is biochemical.

The target of series [2] is T1, topo I. The series can be described thus: Stimulation of topoisomerase I mediated cleavage of pBR322 DNA. In kind it is biochemical. To be noted: for nicked plasmid DNA (topo I mediated cleavage): at 25 μM. An excerpt: To determine the effect of the newly synthesised compounds on the catalytic activity of topo I and II (α and β), specific tests measuring relaxation, decatenation and enzyme-mediated cleavage of DNA were employed using purified human topos.
Simulation of Topoisomerase I Mediated Cleavage of pBR322DNA by Spacer-Linked Anthraquinone-Peptide Conjugates

A further series deals with pBR322 DNA. The series can be described thus: DNA binding assay: fluorescence quenching, displacement of ethidium bromide and Hoechst dye 33258. To be noted: for QH50: concentration displacing 50% of Hoechst dye 33258 (groove binder) from DNA; for QE50: concentration displacing 50% of ethidium bromide (intercalator) from DNA. From the text:
The present inventors have now determined that the introduction of appropriately positioned, conformationally restricted groups into the spacer group of spacer-linked anthraquinone-amino acid or peptide conjugates, allows control of the affinity and mode of binding to DNA. This affinity and mode of binding to DNA is readily determined by fluorescence quenching experiments in which the Q50 values for displacement of ethidium bromide, a DNA intercalator, and for Hoechst 33258 dye, a DNA minor-groove-binder, from which their fluorescent DNA-bound complexes are measured and expressed in μM units of drug concentration (see PCT/GB99/01901 incorporated herein by reference).
The propensity of selected compounds to bind to DNA in the absence of topos was measured in order to identify compounds that would bind weakly, or not at all. […] A […] was used determine binding constants of the compound to DNA by displacement of either ethidium bromide (an intercalator) or Hoechst dye 33258 (a groove binder) which form a DNA-bound fluorescent complex measured by fluorescence spectroscopy.
DNA Binding Assay Protocol
In order to detect the strength and mode of anthraquinone compound binding to DNA the displacement of known DNA binders was detected by measuring the fluorescence of a DNA/fluorescent compound complex. The addition of known concentrations of ethidium bromide, an interchelator, and Hoescht Dye, a groove binder, cause a fluorescent DNA/binder complex that can be detected and the fluorescence quantified. The addition of anthraquinone compounds displaces the interchelators or groove binders, depending on the compound mode of DNA binding, and therefore reduces the fluorescence accordingly. The preferred binding action of compounds can be quantified by determining the reduction in fluorescence resulting from a given concentration of compound. The quantification of a compounds ability to bind to DNA is expressed, as the concentration required to displace 50% of the ethidium bromide or Hocscht Dye, thus reducing the fluorescence by 50%. Therefore, the values produced are QE50 for ethidium, bromide, or QH50 for Hoescht Dye.
Compound: 300, 60, 10 and 10/6 µM (1.66 μM) solution concentrations were prepared for use in the assay to produce a range of compound. Concentrations. 100, 200 and 300 μl of each dilution were used in the assay reaction. This provides a range of concentrations: −30, 20, 10, 6, 4, 2, 1, 0.67, 0.33, 0.17, 0.11, 0.06, 0.00 μM in the assay environment. Intermediate concentrations can be utilised to enhance the accuracy of the displacement concentration determination.
Buffer: 100 mM Tris, NaCI 500 mM. […] Stock solution of 200 μM was prepared in 10× assay buffer. Dilution of DNA therefore provided the correct concentration of assay buffer in the assay cell. 300 μg DNA was used in 3 ml reaction mixture therefore 20 μM DNA concentration. Hoescht Dye 2 μM final concentration, therefore 100 μl of a 60 μM stock solution was added to a 3 ml assay. Ethidium Bromide 2 μM final concentration therefore 100 μl of a 60 μM stock solution was added to a 3 ml assay. Distilled H2O Water was added to produce 3 ml reaction volume. Order of addition: 1. DNA, 2. Water, 3. Drug, 4. Dye
The assay was completed with both Hoescht Dye and Ethidium. Bromide for each compound. The ethidium bromide is a DNA inter-chelator, Hoescht Dye is a minor groove binder. 100, 200 and 30 gμ of the lowest compound dilution was assayed. This procedure was repeated with all further dilution's. This provided a curve of fluorescence intensity decrease with increasing compound concentration. QE50 and QH50 values were determined by extrapolating the concentration of compound at the point where the fluorescence intensity was reduced by 50%. Controls involving compound only and ethidium. bromide or Hoechst Dye without compound were carried out for each experiment. […]

For series [3], the target named is T1, topo I. The series can be described thus: Immunoband depletion of topoisomerase I in HL-60 cells. In kind it is cell-based. Further details: endogenous in cells; host or cells: HL-60 human leukemia cells. The protocol: Immunoband Depletion of Topoisomerase I
The data provides good evidence for ternary complex (drug-DNA-enzyme) formation in viable whole cells.
The method was adapted from Boege and Andersen [Selected novel flavones inhibit the DNA binding or the DNA religation step of cukaryotic topoisomerase I, F. Boege, T. Straub, A. Kehr, C. Boesenberg, K. Christiansen, A. Andersen, F. Jakob, J, Kohrle, J. Biol. Chem., 271, 2262, (1996)]; briefly, 10^6 HL-60 cells were cultivated for 1 h with and without drugs. Reactions were terminated by sedimentation of the cells (1000×g, 5 min, 4° C.) and subsequent lysis in PBS/NP40, RIPA buffer containing pepstatin and leupeptin. Samples were subjected to SDS-polyacrylamide (8%) gel electrophoresis and proteins that had entered the gel were electrophoretically transferred to nitro-cellulose sheets by the semi-dry method. Immunstaining of immobilised proteins was carried out using a polyclonal Ab of human topo I [topogen], and subsequently anti-human Ig biotinylated whole Ab (sheep)[Amersham], streptavidin horse-radish peroxidase and the ECL system [Amersham].

In the case of `C[C@H](N)C(=O)N1CCN(c2cccc3c2C(=O)c2ccccc2C3=O)CC1.O=C(O)C(F)(F)F` [Example 17, 1-(1-L-alanylpiperazinyl)anthracene-9,10-dione trifluoroacetate salt], the IC50 – broadly, the midpoint of a concentration-inhibition curve – in the series on MAC 15A cells came out at 25 µM; in the series with HL-60 Human Leukemia, 10.7 µM. The “DNA-topoisomerase activity: inhibition of topo I relaxation” value (“DNA-topoisomerase activity: inhibition” for short) at topo I [1] (at 25 μM) is on record as “COMPLETE inhibition at 25 μM”. In addition, at topo I [2], the “nicked plasmid DNA (topo I mediated cleavage)” value (shortened to “nicked plasmid DNA”) is 10% nicked plasmid DNA at 25 μM.
On to `N[C@@H](Cc1ccccc1)C(=O)N1CCN(c2cccc3c2C(=O)c2ccccc2C3=O)CC1.O=C(O)C(F)(F)F` [Example 21, 1-(1-L-phenylalanylpiperazinyl)anthracene-9,10-dione trifluoroacetate salt], for which the “DNA-topoisomerase activity: inhibition” value at topo I [1] (at 10 μM) is “COMPLETE inhibition at 10 μM”. Moreover, the “DNA-topoisomerase activity: topo I mediated cleavage” value on topo I [2] (between 10-100 μM) was “NO CLEAVAGE between 10-100 μM”.
The compound “(2R)-2-amino-N-{4-[(9,10-dioxoanthryl)amino]cyclohexyl}-3-phenylpropanamide trifluoroacetate salt [Example 28]” yielded an IC50 in the series with MAC 15A cells of 8 µM. At topo I [1] (at 50 μM), the “DNA-topoisomerase activity: inhibition” value is listed as “PARTIAL inhibition at 50 μM”. Also, the “nicked plasmid DNA” value at topo I [2] is given as 20% nicked plasmid DNA at 25 μM.
In the series on pBR322 DNA, `O=C1c2c(O)ccc(O)c2C(=O)c2c(NCCNCCO)ccc(NCCNCCO)c21` [Mitoxantrone, reference compound] displayed a QH50 of 1.0 µM and a QE50 of 0.35 µM.
On to `O=C1c2ccccc2C(=O)c2c1cccc2N1CCNCC1`, for which the melting point (in general, the temperature of the solid-liquid transition) was determined as 190 °C.
On to `N[C@@H](Cc1ccccc1)C(=O)NC1CCC(Nc2cccc3c2C(=O)c2ccccc2C3=O)CC1.O=C(O)C(F)(F)F` (stereo partly drawn) [Example 26, (2S)-2-amino-N-{4-[(9,10-dioxoanthryl)amino]cyclohexyl}-3-phenylpropanamide trifluoroacetate salt], for which the IC50 with MAC 15A cells turned out to be 3.5 µM. In addition, in the series on pBR322 DNA, the QH50 is 2.3 µM and the QE50 worked out at 6.5 µM. Further, on topo I [1] (between 25-100 μM), the “DNA-topoisomerase activity: inhibition” value is recorded as “NO inhibition between 25-100 μM”. In addition, the “nicked plasmid DNA” value at topo I [2] was 45% nicked plasmid DNA at 25 μM. The “intensity of the (100 kDa) topo I band” value on topo I [3] (1 h with drug, in comparison with camptothecin) is “Reductions in the intensity of the (100 kDa) topo I band were observed”. The “extent of immunoband depletion” value at topo I [3] (above 200 μM) is on record as “comparable to the effect of camptothecin at 50 μM”.
`O=C(O)C(F)(F)F.O=C1c2ccccc2C(=O)c2c1cccc2N1CCNCC1` [Example 4b, 1-(1-piperazinyl)anthracene-9,10-dione trifluoroacetate salt] displayed a melting point of 170 °C. In the series on pBR322 DNA, this compound yielded a QH50 of 1.7 µM and a QE50 of 10.5 µM.
For `CN(CCO)c1cccc2c1C(=O)c1c(cccc1N(C)CCO)C2=O`, the melting point was in the range of 168 to 178 °C.
Same read-out and setting: next, `Nc1ccc(Nc2cccc3c2C(=O)c2ccccc2C3=O)cc1`: 175 to 182 °C.
For the compound “1-(2-β-alanylpiperazinyl)anthracene-9,10-dione trifluoroacetate salt [Example 15]”, the midpoint of inhibition in the series with MAC 15A cells, the IC50, lay at 20 µM. Also, in the series with pBR322 DNA, the QH50 was determined as 1.6 µM and the QE50 was 11.4 µM.
